Data taken from US12643875B2, “Antibacterial compounds” (The Penn State Research Foundation, priority 2020, dated 2026).
Values after ≈ are worked out from the molar mass of the structure shown. Read-outs that look alike come from different tables or passages of the source.

Key:
[1] = tested on: bacteria; experiment: Bacterial growth inhibition, broth microdilution (CLSI M07-A10); format: cell-based; conditions: for IC50: growth inhibition
Description: Assay: Broth microdilution by the method of: Clinical and Laboratory Standards Institute, Ed., Methods for dilution antimicrobial susceptibility tests for bacteria that grow aerobically: M07-A10; approved standard (Committee for Clinical Laboratory Standards, Wayne, PA, 10. ed., 2015), Documents/Clinical and Laboratory Standards Institute.

[2] = tested on: HUVEC (Human Umbilical Vein Endothelial Cells); experiment: Cytotoxicity, propidium iodide fluorescence, HuVEC cells; format: cell-based; parameters: key: % cytotoxicity relative to positive control (100% cell lysis); conditions: 24 h, relative to positive control (100% cell lysis)
Description: (§1) Assay: HUVEC (Human Umbilical Vein Endothelial Cells) and HeLa (cervical cancer cells) were seeded into 96-well culture plates at a density of 1.5×10^5 cells/ml in endothelial cell or DMEM growth medium, supplemented with 10% fetal bovine serum and no antibiotic. Cells were cultured for 24 h before assay setup. Compounds were diluted in the corresponding growth medium and tested in triplicate at 10× and 20× the minimum bacterial growth inhibitory concentrations. Growth media in the 96-well plate was aspirated off and replaced with media containing the test compounds or DMSO (0.5%, vol/vol). The plates were incubated at 37° C. in a 5% CO2 incubator for 24 h. A positive control sample was prepared by replacing media in designated wells with a solution containing a cell lysis reagent. Propidium iodide was then added at 5 μM/well and the plate was incubated for 10 minutes at room temperature. Fluorescence was then recorded using a SpectraMax i3 (Molecular Devices) at λex 535 nm/λem 617 nm. Cytotoxicity was determined by quantifying the fluorescence values for each compound relative to the positive control (100% cell lysis). For selected exemplified compounds, cytotoxicity against HeLa and HuVEC cells was measured at 10× and 20×MIC.

[3] = tested on: HeLa (cervical cancer cells); experiment: Cytotoxicity, propidium iodide fluorescence, HeLa cells; format: cell-based, Human; parameters: key: % cytotoxicity relative to positive control (100% cell lysis); conditions: 24 h, relative to positive control (100% cell lysis)
Description: as §1

[4] = Solubility in growth medium of the transcription assay; format: physicochemical; parameters: key: *: poor solubility in test medium
[5] = tested on: σ^E-mediated transcription; experiment: σ^E-mediated transcription inhibition, E. coli reporter assay; format: cell-based; conditions: Escherichia coli
Description: The selected exemplified compounds were tested for inhibition of σ^E-mediated transcription using an E. coli reporter assay according to the protocol described in U.S. Pat. No. 8,962,550, which is incorporated herein by reference.

[6] = tested on: CYP; experiment: HLM CYP inhibition
[7] = tested on: CYP (isoform not given); experiment: HLM CYP inhibition; conditions: human, human liver microsomes
[8] = Serum binding; format: in vitro ADME
[9] = Plasma binding; format: in vitro ADME; conditions: for free compound: serum and plasma binding
[10] = Stability in human liver microsomes (intrinsic clearance)
[11] = tested on: CYP

For `Cc1cc(F)ccc1-c1cccc(NC(=O)c2ccccc2)n1` [Compound 39721], the MIC [1] was 20 µg/mL (≈ 65.3 µM).
Molecule `Cc1cc(F)ccc1-c1cccc(-c2cn(-c3cccc4ncccc34)nn2)c1` [Compound 39739] has an MIC [1] of 38 µg/mL (≈ 99.9 µM).
Work on `Cc1cc(F)ccc1-c1cccc(Nc2ccncc2)c1` [Compound 39744] yielded an MIC [1] of 14 µg/mL (≈ 50.3 µM).
With `Cc1cc(F)ccc1-c1cccc(NC(=O)c2cccc(Cl)c2)c1` [Compound 39732] the MIC [1] was 8.5 µg/mL (≈ 25 µM) and the IC50 [1] was 5.9 µg/mL (≈ 17.4 µM).
Work on `Cc1cc([N+](=O)[O-])ccc1-c1cccc(Nc2ccncc2)n1` [Compound 39709] yielded an MIC [1] of 117 µg/mL (≈ 382 µM).
For `c1cc(Nc2ccncc2)nc(C2CCCCC2)c1` [Compound 39710], the MIC [1] was 51 µg/mL (≈ 201 µM).
Work on `Cc1cc(F)ccc1-c1ccc(-c2cn(-c3ccncc3)nn2)cc1` [Compound 39730] yielded an MIC [1] of 66 µg/mL (≈ 200 µM).
With `Cc1cc(F)ccc1-c1cccc(NC(=O)c2cccc(Cl)c2)n1` [Compound 39720] the “Cytotoxicity at 10× MIC HuVEC” value [2] was 10, the “Cytotoxicity at 20× MIC HuVEC” value [2] was 10 and the MIC [1] was 4.3 µg/mL (≈ 12.6 µM). For the same molecule, the IC50 [1] was 2.4 µg/mL (≈ 7.04 µM), the “Cytotoxicity at 10× MIC HeLa” value [3] was 8 and the “Cytotoxicity at 20× MIC HeLa” value [3] was 8. For the same molecule, the “solubility in test medium” value [4] was “*”, the IC50 [5] was about 34.1 µg/mL (≈ 100 µM) and the “Human Liver Microsomes Intrinsic Clearance (CLint)” value was 1.51 mL/min/g liver.
In the case of `O=C(Nc1cccc(-c2ccccc2)c1)c1cccc(C(F)(F)F)c1` [Compound 39751], the “Cytotoxicity at 10× MIC HuVEC” value [2] is reported as 17, the “Cytotoxicity at 20× MIC HuVEC” value [2] is reported as 14 and the MIC [1] is reported as 8.5 µg/mL (≈ 24.9 µM). The IC50 [1] was 4.6 µg/mL (≈ 13.5 µM), the “Cytotoxicity at 10× MIC HeLa” value [3] was 9 and the “Cytotoxicity at 20× MIC HeLa” value [3] was 7. For the same molecule, the “inhibition of CYP” value [6] was “no detectable inhibition”, the IC50 [7] was over 33 µM and the “% serum binding” value [8] was 99.9%. For the same molecule, the “% plasma binding” value [9] was 99.9%, the free compound [9] was “no detectable free compound” and the IC50 [5] was 4.3 µg/mL (≈ 12.6 µM). The “Human Liver Microsomes Intrinsic Clearance (CLint)” value was 4.35 mL/min/g liver.
For `Cc1cc(F)ccc1-c1cccc(NC(=O)c2ccccc2)c1` [Compound 39731], the “Cytotoxicity at 10× MIC HuVEC” value [2] was 14, the “Cytotoxicity at 20× MIC HuVEC” value [2] was 14 and the MIC [1] was 7.6 µg/mL (≈ 24.9 µM). For the same molecule, the IC50 [1] was 1.6 to 3.4 µg/mL (≈ 5.24 to 11.1 µM), the “Cytotoxicity at 10× MIC HeLa” value [3] was 8 and the “Cytotoxicity at 20× MIC HeLa” value [3] was 10. The “solubility in test medium” value [4] was “*”, the “inhibition of CYP” value [6] was “no detectable inhibition” and the IC50 [7] was over 33 µM. For the same molecule, the “% serum binding” value [8] was 99.7%, the “% plasma binding” value [9] was 99.8% and the IC50 [5] was about 60 µg/mL (≈ 196 µM). For the same molecule, the “Human Liver Microsomes Intrinsic Clearance (CLint)” value was 2.12 mL/min/g liver.
For `Cc1ncc2n1-c1ccc(Cl)cc1C(c1ccccc1F)=NC2` [Midazolam control, Midazolam], the “Human Liver Microsomes Intrinsic Clearance (CLint)” value [10] was 9.04 mL/min/g liver.
In the case of `Cc1cc(F)ccc1-c1cccc(-c2cn(C3CCSCC3)nn2)c1` [Compound 39735], the MIC [1] is reported as 35 µg/mL (≈ 99 µM).
With `Cc1cc(F)ccc1-c1cccc(NC(=O)c2ccco2)c1` [Compound 39733] the MIC [1] was 29 µg/mL (≈ 98.2 µM) and the IC50 [1] was 16 µg/mL (≈ 54.2 µM).
With `Cc1cc(F)ccc1-c1cccc(-c2cn(-c3ccncc3)nn2)c1` [Compound 39724] the “Cytotoxicity at 10× MIC HuVEC” value [2] was 16, the “Cytotoxicity at 20× MIC HuVEC” value [2] was 19 and the MIC [1] was 3.3 to 4.1 µg/mL (≈ 9.99 to 12.4 µM). The IC50 [1] was 1.6 to 2.3 µg/mL (≈ 4.84 to 6.96 µM), the “Cytotoxicity at 10× MIC HeLa” value [3] was 11 and the “Cytotoxicity at 20× MIC HeLa” value [3] was 14. The IC50 [7] was 3.55 µM, the “% serum binding” value [8] was 94.6% and the “% plasma binding” value [9] was 99.5%. The IC50 [5] was 6.6 µg/mL (≈ 20 µM) and the “Human Liver Microsomes Intrinsic Clearance (CLint)” value was 0.37 mL/min/g liver.
In the case of `c1ccc(-c2cccc(-c3cn(-c4ccncc4)nn3)c2)cc1` [Compound 39748], the “Cytotoxicity at 10× MIC HuVEC” value [2] is reported as 15, the “Cytotoxicity at 20× MIC HuVEC” value [2] is reported as 21 and the MIC [1] is reported as 7.6 µg/mL (≈ 25.5 µM). For the same molecule, the IC50 [1] was 2.6 µg/mL (≈ 8.71 µM), the “Cytotoxicity at 10× MIC HeLa” value [3] was 14 and the “Cytotoxicity at 20× MIC HeLa” value [3] was 14. For the same molecule, the IC50 [7] was 1.48 µM, the “% serum binding” value [8] was 99.7% and the “% plasma binding” value [9] was 99.7%. For the same molecule, the IC50 [5] was 2.6 µg/mL (≈ 8.71 µM) and the “Human Liver Microsomes Intrinsic Clearance (CLint)” value was 1.28 mL/min/g liver.
Work on `Cc1cc(F)ccc1-c1cccc(NS(=O)(=O)c2cccc3c(N(C)C)cccc23)n1` [Compound 39713] yielded an MIC [1] of 87 µg/mL (≈ 200 µM).
With `Cc1cc(F)ccc1-c1cccc(Nc2ccccc2)n1` [Compound 39704] the “Cytotoxicity at 10× MIC HuVEC” value [2] was 15, the “Cytotoxicity at 20× MIC HuVEC” value [2] was 21 and the MIC [1] was 1.7 to 3.5 µg/mL (≈ 6.11 to 12.6 µM). For the same molecule, the IC50 [1] was 0.9 to 2.8 µg/mL (≈ 3.23 to 10.1 µM), the “Cytotoxicity at 10× MIC HeLa” value [3] was 11 and the “Cytotoxicity at 20× MIC HeLa” value [3] was 11. The “IC50 for CYP inhibition over the MIC” value [11] was “more than 5 ×”, the “solubility in test medium” value [4] was “*” and the IC50 [7] was 13.5 µM. The “% serum binding” value [8] was 100%, the “% plasma binding” value [9] was 99.9% and the free compound [9] was “no detectable free compound”. For the same molecule, the IC50 [5] was 11 µg/mL (≈ 39.5 µM) and the “Human Liver Microsomes Intrinsic Clearance (CLint)” value was 5.38 mL/min/g liver.
`Cc1cc(F)ccc1-c1cc(NC(=O)c2ccco2)ccn1` [Compound 39717] showed an MIC [1] of 50 µg/mL (≈ 169 µM).
With `Cc1cc(F)ccc1-c1cccc(Nc2ccc(N=[N+]=[N-])cc2)n1` [Compound 39714] the MIC [1] was 64 µg/mL (≈ 200 µM).
With `Cc1cc(F)ccc1-c1cc(Nc2ccccc2)ccn1` [Compound 39712] the MIC [1] was 21 µg/mL (≈ 75.5 µM).
Molecule `Cc1cc(F)ccc1-c1cccc(Nc2ccncc2)n1` [Compound 2170] has an MIC [1] of 14 µg/mL (≈ 50.1 µM) and an IC50 [1] of 6.8 µg/mL (≈ 24.3 µM).
In the case of `c1ccc(COc2ccc(-c3cccc(Nc4ccncc4)n3)cc2)cc1` [Compound 39718], the MIC [1] is reported as 35 µg/mL (≈ 99 µM).
With `Cc1cc(F)ccc1-c1cccc(Nc2ccc(S(C)(=O)=O)cc2)c1` [Compound 39734] the MIC [1] was 28 µg/mL (≈ 78.8 µM) and the IC50 [1] was 22 µg/mL (≈ 61.9 µM).
`c1ccc(-c2cccc(Nc3ccncc3)n2)cc1` [Compound 39711] showed an MIC [1] of 6.2 µg/mL (≈ 25.1 µM) and an IC50 [1] of 3.7 µg/mL (≈ 15 µM).
`Cc1cc(F)ccc1-c1cccc(Nc2ccc([N+](=O)[O-])c3nonc23)n1` [Compound 39722] showed an MIC [1] of 73 µg/mL (≈ 200 µM).
`Cc1cc(F)ccc1-c1cccc(NS(=O)(=O)c2ccccc2)n1` [Compound 39705] showed an MIC [1] of 34 µg/mL (≈ 99.3 µM) and an IC50 [1] of 16 µg/mL (≈ 46.7 µM).
For `Cc1cc(F)ccc1-c1cccc(Nc2ccc(C#C[Si](C)(C)C)cc2)n1` [Compound 39715], the MIC [1] was 75 µg/mL (≈ 200 µM).
